The text below walks through data of BindingDB's records for doi:10.1021/jm060955d (Abbott Laboratories, 2006).

What all share (experiment): DPP Inhibition Assay
What all share (details): pH 7.5; 22 °C

One assay addresses Dipeptidyl peptidase 9 (Homo sapiens, UniProt Q86TI2). As to the method: (§1) For each concentration of inhibitor or DMSO control, the steady state rates were used to fit a rectangular hyperbola, from which Km and Vmax values were determined by nonlinear regression analysis. The ratio of the Km/Vmax vs inhibitor concentration was plotted and the negative X-intercept, as calculated by linear regression, was the competitive Ki.

Another assay addresses Dipeptidyl peptidase 4 (Homo sapiens, UniProt P27487). As to the method:
as §1

A further assay deals with Dipeptidyl peptidase 8 (Homo sapiens, UniProt Q6V1X1). As to the method:
as §1

Sequence of Dipeptidyl peptidase 4 (P27487 whole entry): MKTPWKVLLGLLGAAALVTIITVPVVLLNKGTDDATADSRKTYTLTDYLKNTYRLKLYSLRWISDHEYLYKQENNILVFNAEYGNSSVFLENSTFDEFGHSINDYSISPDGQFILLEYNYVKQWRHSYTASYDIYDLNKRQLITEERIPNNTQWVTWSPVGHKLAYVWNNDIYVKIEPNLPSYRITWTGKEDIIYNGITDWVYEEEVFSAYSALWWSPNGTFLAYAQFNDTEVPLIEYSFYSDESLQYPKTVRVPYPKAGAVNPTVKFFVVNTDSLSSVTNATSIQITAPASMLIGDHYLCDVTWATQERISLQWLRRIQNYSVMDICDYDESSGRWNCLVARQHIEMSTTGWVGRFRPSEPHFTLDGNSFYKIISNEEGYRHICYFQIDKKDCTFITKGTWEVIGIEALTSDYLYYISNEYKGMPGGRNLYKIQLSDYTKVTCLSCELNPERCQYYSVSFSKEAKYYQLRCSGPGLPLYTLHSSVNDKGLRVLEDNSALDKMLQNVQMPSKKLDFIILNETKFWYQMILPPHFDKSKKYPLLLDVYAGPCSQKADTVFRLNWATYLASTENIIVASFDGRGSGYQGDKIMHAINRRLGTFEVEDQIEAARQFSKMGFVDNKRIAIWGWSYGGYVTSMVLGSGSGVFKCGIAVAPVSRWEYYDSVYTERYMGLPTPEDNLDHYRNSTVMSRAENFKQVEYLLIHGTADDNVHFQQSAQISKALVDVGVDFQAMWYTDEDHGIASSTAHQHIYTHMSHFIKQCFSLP
Sequence of Dipeptidyl peptidase 9 (Q86TI2 whole entry): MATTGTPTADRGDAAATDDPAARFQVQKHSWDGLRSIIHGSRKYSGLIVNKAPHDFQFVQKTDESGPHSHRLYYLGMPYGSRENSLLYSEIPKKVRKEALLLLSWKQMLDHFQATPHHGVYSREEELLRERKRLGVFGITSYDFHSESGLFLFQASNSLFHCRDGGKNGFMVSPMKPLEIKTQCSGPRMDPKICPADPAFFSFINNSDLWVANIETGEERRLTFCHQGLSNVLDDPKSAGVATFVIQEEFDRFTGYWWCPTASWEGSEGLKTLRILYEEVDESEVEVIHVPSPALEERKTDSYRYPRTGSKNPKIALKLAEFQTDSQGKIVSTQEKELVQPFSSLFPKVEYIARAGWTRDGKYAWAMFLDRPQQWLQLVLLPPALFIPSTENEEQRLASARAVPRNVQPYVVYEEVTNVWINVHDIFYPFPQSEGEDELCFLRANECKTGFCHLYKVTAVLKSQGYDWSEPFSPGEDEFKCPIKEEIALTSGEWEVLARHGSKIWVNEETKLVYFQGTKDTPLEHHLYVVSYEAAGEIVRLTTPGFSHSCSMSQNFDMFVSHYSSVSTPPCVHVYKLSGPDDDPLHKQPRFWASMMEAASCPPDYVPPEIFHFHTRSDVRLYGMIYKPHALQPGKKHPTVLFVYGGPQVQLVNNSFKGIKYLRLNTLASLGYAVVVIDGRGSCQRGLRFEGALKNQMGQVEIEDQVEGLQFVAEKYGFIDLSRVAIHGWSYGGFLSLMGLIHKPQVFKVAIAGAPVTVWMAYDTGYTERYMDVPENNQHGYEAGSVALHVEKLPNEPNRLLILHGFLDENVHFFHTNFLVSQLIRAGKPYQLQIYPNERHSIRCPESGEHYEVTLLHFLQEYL
Sequence of Dipeptidyl peptidase 8 (Q6V1X1 whole entry): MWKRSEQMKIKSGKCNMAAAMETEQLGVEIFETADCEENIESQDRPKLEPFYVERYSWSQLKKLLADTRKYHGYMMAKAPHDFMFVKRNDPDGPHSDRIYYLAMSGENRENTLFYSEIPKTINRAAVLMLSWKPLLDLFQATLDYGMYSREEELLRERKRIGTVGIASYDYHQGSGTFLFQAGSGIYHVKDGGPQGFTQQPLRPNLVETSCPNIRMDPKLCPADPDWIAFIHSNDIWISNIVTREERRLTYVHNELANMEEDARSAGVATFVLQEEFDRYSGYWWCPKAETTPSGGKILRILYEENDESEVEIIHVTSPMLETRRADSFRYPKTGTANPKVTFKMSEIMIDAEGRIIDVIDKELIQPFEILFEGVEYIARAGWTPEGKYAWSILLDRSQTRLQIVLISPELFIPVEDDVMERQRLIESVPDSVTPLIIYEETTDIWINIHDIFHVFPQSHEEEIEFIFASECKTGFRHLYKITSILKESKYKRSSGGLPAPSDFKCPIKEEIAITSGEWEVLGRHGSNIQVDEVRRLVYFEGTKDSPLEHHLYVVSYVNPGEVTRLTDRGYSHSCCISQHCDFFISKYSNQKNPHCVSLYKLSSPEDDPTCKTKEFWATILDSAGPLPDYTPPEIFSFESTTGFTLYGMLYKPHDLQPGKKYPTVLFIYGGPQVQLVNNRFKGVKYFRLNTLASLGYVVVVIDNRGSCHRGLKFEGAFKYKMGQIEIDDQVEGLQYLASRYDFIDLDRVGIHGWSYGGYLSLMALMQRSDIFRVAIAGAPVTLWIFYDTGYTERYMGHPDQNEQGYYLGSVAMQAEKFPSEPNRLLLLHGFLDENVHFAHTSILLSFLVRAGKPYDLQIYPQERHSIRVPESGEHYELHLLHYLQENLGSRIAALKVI

Broadly, the Ki is the equilibrium dissociation constant of an inhibitor or competing ligand from its target. Read a high Ki as weaker binding. Consider `N[C@H]1CC(C(=O)N2CCn3c(nnc3C(F)(F)F)C2)=CC[C@@H]1c1cc(F)c(F)cc1F` [(1S,6R)-3-{[3-(trifluoromethyl)-5H,6H,7H,8H-[1,2,4]triazolo[3,4-a]pyrazin-7-yl]carbonyl}-6-(2,4,5-trifluorophenyl)cyclohex-3-en-1-aminium; 2,2,2-trifluoroacetate], for which the Ki on Dipeptidyl peptidase 9 is 4000 nM; at Dipeptidyl peptidase 4 it was 1.3 nM; on Dipeptidyl peptidase 8, over 30000 nM.
Turning to `N[C@H]1CC(c2ccccc2)=CC[C@@H]1c1ccccc1Cl` [(1S,6R)-6-(2-chlorophenyl)-3-phenylcyclohex-3-en-1-aminium; 2,2,2-trifluoroacetate], the Ki on Dipeptidyl peptidase 4 is under 140 nM.
